Columns and labels:
[1] = molecular target: PI3-kinase p110-delta/p85-alpha (Homo sapiens, UniProt O00329); assay: Inhibition of N-terminal His6-tagged recombinant full-length human p110delta/untagged recombinant full length p85alpha expressed in baculovirus infected Sf21 cells using phosphatidylinositol as substrate in presence of gamma-32P-ATP after 5 mins by thin layer chromatographic method
[2] = Antiproliferative activity against Balb/c mouse splenic B cells preincubated for 30 mins followed by LPS or F(ab')2 donkey anti-mouse IgM and recombinant mouse IL4 stimulation measured after 72 hrs by Alamar Blue reduction assay; format: functional, cell-based
[3] = molecular target: PI3-kinase p110-alpha/p85-alpha (Homo sapiens, UniProt P42336); assay: Inhibition of N-terminal His6-tagged recombinant full-length human p110alpha/untagged recombinant full length human p85alpha expressed in baculovirus infected Sf21 cells using phosphatidylinositol as substrate in presence of gamma-32P-ATP after 5 mins by thin layer chromatographic method
PI3K p110 beta/p85 alpha = PI3K p110 beta/p85 alpha (Homo sapiens, UniProt P42338); assay: Inhibition of N-terminal His6-tagged recombinant full-length human p110beta/untagged recombinant full length p85alpha expressed in baculovirus infected Sf21 cells using phosphatidylinositol as substrate in presence of gamma-32P-ATP after 5 mins by thin layer chromatographic method
[4] = molecular target: Phosphatidylinositol 4,5-bisphosphate 3-kinase catalytic subunit gamma isoform (Homo sapiens, UniProt P48736); assay: Inhibition of recombinant human C-terminal His6-tagged p110gamma expressed in insect cells using phosphatidylinositol as substrate in presence of gamma-32P-ATP after 5 mins by thin layer chromatographic method
Chain of Phosphatidylinositol 4,5-bisphosphate 3-kinase catalytic subunit gamma isoform (P48736 whole entry, canonical isoform): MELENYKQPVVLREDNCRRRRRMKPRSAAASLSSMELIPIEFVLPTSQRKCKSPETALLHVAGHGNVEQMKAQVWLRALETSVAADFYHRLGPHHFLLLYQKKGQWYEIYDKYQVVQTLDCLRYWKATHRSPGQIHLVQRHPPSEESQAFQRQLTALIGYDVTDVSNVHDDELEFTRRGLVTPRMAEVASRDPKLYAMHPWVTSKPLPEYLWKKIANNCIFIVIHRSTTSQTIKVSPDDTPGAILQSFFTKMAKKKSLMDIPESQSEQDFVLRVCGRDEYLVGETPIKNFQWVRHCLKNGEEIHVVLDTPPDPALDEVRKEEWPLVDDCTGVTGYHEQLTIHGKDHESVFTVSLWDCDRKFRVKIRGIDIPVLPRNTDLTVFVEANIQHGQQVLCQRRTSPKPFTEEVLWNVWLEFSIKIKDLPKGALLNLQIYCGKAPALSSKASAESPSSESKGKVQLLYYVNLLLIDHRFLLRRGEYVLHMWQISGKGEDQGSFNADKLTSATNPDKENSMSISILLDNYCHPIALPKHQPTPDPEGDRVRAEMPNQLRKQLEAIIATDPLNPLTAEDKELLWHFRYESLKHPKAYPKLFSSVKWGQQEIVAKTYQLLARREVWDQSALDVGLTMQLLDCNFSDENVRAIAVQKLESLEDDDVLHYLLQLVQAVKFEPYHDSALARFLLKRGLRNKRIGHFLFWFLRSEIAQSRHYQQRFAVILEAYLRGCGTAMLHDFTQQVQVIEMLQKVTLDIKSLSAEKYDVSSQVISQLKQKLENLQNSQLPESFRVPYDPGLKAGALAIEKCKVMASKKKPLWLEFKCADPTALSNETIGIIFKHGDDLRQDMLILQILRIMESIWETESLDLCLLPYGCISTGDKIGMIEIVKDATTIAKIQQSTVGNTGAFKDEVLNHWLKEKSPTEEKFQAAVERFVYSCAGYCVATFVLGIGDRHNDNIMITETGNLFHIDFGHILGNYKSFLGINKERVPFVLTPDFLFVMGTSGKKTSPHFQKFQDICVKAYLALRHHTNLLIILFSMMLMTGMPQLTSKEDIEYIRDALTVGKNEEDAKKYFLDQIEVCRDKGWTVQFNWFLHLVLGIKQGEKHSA

Chain of PI3-kinase p110-alpha/p85-alpha (P27986 whole entry): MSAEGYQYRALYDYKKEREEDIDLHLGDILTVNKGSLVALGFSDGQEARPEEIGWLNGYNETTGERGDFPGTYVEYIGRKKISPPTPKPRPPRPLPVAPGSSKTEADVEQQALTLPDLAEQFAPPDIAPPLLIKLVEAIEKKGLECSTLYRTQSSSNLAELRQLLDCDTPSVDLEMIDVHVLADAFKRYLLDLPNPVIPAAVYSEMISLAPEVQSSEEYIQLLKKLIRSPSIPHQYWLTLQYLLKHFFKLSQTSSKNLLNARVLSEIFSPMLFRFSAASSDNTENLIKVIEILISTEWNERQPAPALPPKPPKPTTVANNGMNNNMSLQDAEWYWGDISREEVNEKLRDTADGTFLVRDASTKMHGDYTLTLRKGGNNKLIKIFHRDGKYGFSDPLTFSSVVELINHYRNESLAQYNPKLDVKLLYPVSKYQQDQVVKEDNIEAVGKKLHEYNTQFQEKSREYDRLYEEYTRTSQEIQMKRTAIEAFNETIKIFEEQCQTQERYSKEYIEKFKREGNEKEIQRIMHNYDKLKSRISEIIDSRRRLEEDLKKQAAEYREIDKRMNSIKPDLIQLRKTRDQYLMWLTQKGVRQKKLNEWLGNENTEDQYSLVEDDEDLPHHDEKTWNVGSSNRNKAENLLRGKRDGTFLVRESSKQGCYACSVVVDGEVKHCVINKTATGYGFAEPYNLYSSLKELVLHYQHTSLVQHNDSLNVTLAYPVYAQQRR
Chain of PI3-kinase p110-alpha/p85-alpha (P42336 whole entry): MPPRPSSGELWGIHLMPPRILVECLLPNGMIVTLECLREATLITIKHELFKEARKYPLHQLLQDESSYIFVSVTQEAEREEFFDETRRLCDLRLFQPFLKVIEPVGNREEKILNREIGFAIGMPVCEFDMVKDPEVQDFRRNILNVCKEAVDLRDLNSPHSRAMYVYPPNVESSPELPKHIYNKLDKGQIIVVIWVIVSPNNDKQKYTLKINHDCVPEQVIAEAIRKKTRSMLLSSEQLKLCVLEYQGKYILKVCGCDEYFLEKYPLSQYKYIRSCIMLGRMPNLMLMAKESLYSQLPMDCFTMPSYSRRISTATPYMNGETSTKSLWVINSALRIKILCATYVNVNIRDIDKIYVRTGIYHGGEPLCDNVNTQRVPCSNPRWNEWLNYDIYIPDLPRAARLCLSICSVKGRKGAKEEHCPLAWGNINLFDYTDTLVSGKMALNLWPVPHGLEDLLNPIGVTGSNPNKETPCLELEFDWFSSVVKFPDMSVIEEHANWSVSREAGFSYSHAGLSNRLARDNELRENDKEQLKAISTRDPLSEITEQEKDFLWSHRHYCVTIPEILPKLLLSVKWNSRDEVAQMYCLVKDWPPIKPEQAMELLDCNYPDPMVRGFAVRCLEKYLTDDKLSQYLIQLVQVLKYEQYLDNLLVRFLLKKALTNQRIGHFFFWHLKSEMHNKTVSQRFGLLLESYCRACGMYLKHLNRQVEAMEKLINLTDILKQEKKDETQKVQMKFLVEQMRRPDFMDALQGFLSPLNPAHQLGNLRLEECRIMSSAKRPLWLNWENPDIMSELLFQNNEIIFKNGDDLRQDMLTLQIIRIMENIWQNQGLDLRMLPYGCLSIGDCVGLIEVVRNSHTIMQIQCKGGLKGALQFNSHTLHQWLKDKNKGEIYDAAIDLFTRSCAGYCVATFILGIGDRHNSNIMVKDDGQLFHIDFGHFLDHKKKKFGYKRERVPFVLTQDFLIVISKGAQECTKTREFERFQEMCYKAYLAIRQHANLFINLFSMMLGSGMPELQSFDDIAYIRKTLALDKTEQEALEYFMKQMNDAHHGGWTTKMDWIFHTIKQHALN
Chain of PI3-kinase p110-delta/p85-alpha (P27986 whole entry): as the sequence (P27986 whole entry) above
Chain of PI3-kinase p110-delta/p85-alpha (O00329 whole entry): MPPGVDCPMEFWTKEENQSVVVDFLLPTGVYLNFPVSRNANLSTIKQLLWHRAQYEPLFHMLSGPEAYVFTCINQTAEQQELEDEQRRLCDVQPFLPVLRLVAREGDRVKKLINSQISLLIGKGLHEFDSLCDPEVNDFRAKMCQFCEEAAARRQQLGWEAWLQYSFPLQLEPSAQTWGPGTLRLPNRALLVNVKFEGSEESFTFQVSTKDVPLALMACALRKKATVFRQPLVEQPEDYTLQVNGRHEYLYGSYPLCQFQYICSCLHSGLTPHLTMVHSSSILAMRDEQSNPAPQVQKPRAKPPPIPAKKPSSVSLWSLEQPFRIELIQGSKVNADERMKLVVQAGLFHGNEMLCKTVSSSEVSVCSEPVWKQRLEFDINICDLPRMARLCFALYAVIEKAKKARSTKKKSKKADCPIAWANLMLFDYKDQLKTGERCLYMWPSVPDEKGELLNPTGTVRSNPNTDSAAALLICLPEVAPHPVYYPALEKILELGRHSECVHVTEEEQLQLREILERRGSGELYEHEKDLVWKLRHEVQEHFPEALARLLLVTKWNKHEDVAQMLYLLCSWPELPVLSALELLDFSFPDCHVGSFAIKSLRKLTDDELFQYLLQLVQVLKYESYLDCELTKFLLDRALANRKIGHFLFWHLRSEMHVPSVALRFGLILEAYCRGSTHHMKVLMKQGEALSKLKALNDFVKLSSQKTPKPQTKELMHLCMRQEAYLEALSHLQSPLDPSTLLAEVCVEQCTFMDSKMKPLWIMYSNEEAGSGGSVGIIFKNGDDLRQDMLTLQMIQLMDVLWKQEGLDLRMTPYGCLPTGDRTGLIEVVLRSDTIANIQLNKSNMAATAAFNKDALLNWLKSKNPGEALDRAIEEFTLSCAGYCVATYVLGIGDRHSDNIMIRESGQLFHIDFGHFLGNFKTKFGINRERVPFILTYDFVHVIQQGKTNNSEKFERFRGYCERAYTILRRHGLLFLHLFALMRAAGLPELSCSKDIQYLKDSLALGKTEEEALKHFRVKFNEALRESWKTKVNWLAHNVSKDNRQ
Chain of PI3K p110 beta/p85 alpha (P27986 whole entry, canonical isoform): as the sequence (P27986 whole entry) above
Chain of PI3K p110 beta/p85 alpha (P42338 whole entry, canonical isoform): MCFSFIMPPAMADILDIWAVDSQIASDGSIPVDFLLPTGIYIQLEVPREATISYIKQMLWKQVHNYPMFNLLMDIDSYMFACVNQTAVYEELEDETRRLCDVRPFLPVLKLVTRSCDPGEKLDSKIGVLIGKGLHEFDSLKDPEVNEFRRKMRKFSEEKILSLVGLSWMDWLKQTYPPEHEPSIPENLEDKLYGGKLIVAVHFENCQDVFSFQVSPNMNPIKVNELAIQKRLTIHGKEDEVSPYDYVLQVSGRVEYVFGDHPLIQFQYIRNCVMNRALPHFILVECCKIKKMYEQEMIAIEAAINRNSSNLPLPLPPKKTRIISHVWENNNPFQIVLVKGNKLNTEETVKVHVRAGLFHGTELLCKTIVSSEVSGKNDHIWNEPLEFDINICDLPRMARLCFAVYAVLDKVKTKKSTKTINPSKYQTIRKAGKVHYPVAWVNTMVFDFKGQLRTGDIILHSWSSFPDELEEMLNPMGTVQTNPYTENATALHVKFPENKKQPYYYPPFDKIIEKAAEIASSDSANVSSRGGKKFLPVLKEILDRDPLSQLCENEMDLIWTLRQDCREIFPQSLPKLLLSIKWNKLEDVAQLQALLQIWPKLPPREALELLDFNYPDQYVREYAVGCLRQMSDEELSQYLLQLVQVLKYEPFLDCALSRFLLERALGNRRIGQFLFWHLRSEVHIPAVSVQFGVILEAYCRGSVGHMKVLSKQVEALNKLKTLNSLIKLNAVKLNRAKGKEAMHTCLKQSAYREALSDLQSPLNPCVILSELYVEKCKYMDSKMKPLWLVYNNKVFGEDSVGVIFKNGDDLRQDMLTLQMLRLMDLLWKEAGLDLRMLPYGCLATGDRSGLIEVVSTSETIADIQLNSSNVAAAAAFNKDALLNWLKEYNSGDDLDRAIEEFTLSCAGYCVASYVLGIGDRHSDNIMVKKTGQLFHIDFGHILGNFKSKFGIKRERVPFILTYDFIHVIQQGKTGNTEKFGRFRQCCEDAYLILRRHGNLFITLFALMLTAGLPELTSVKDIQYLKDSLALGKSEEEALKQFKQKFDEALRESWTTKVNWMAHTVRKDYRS

Compound | IC50 [1] | EC50 [2] | IC50 [3] | IC50 (PI3K p110 beta/p85 alpha) | IC50 [4]
Cc1cccc2cc(Cn3nc(C#C[C@@H](C)O)c4c(N)ncnc43)n(C(C)C)c(=O)c12 | < 0.1 µM | < 1 µM | > 10 µM | < 10 µM | < 10 µM
Cc1ccccc1-n1c(Cn2nc(I)c3c(N)ncnc32)cc2cccc(F)c2c1=O | < 1 µM | < 1 µM | > 10 µM | > 10 µM | < 10 µM
Cc1ccccc1-n1c(Cn2nc(-c3cccc(F)c3)c3c(N)ncnc32)cc2cccc(C)c2c1=O | < 10 µM | < 1 µM | > 10 µM | > 10 µM | < 1 µM
Cc1ccccc1-n1c(Cn2nc(C#N)c3c(N)ncnc32)cc2cccc(C)c2c1=O | < 0.1 µM | < 0.1 µM | > 10 µM | > 10 µM | < 10 µM
Cc1cccc2cc(Cn3nc(I)c4c(N)ncnc43)n(C)c(=O)c12 | < 1 µM | < 1 µM | > 10 µM | > 10 µM | < 10 µM
C=Cc1nn(Cc2cc3cccc(C)c3c(=O)n2-c2ccccc2C)c2ncnc(N)c12 | < 0.1 µM | < 0.1 µM | > 10 µM | > 10 µM | < 1 µM
Cc1cccc2cc(Cn3nc(-c4cc(O)cc(F)c4)c4c(N)ncnc43)n(C(C)C)c(=O)c12 | < 0.1 µM | < 0.1 µM | < 10 µM | < 1 µM | < 1 µM
Cc1cccnc1-n1c(Cn2nc(C#C[C@@H](C)O)c3c(N)ncnc32)cc2cccc(C)c2c1=O | < 1 µM | < 1 µM | > 10 µM | > 10 µM | > 10 µM
Cc1cccc2cc(Cn3nc(C#C[C@@H](C)O)c4c(N)ncnc43)n(-c3ccccc3Cl)c(=O)c12 | < 0.1 µM | < 1 µM | > 10 µM | > 10 µM | < 1 µM
Cc1ccccc1-n1c(Cn2nc(/C=C/C(N)=O)c3c(N)ncnc32)cc2cccc(C)c2c1=O | < 0.1 µM | < 0.1 µM | > 10 µM | < 10 µM | < 0.1 µM
Cc1cccc2cc(Cn3nc(-c4cc(O)cc(F)c4)c4c(N)ncnc43)n(-c3ccccc3OCCN3CCOCC3)c(=O)c12 | < 0.1 µM | < 0.1 µM | < 10 µM | < 10 µM | < 1 µM
Cc1cccc2cc(Cn3nc(I)c4c(N)ncnc43)n(C3CCC3)c(=O)c12 | < 0.1 µM | < 1 µM | > 10 µM | > 10 µM | < 10 µM
CCc1ccccc1-n1c(Cn2nc(C#C[C@@H](C)O)c3c(N)ncnc32)cc2cccc(C)c2c1=O | < 0.1 µM | < 0.1 µM | > 10 µM | < 10 µM | < 1 µM
Cc1ccccc1-n1c(Cn2nc(-c3ccc4oc(N)nc4c3)c3c(N)ncnc32)cc2cccc(C)c2c1=O | < 0.1 µM | < 1 µM | < 10 µM | < 10 µM | < 0.1 µM
Cc1cccc2cc(Cn3nc(-c4cn[nH]c4)c4c(N)ncnc43)n(-c3ccccc3F)c(=O)c12 | < 0.1 µM | < 1 µM | > 10 µM | < 10 µM | < 1 µM
Cc1ccccc1-n1c(Cn2nc(C#C[C@@H](C)O)c3c(N)ncnc32)cc2cccc(C)c2c1=O | < 0.1 µM | < 0.1 µM | > 10 µM | > 10 µM | < 10 µM
Cc1ccccc1-n1c(Cn2nc(-c3cn[nH]c3)c3c(N)ncnc32)cc2ccccc2c1=O | < 1 µM | < 0.1 µM | > 10 µM | > 10 µM | < 10 µM
Cc1cccc2cc(Cn3nc(-c4cccc(F)c4)c4c(N)ncnc43)n(-c3ccccc3F)c(=O)c12 | < 10 µM | < 10 µM | > 10 µM | > 10 µM | < 10 µM
Cc1ccccc1-n1c(Cn2nc(-c3ccc(F)cc3)c3c(N)ncnc32)cc2cccc(C)c2c1=O | < 10 µM | < 10 µM | > 10 µM | > 10 µM | < 1 µM
COc1cc(F)cc(-c2nn(Cc3cc4cccc(C)c4c(=O)n3-c3ccccc3C)c3ncnc(N)c23)c1 | < 1 µM | – | > 10 µM | > 10 µM | < 10 µM
Cc1cccc2cc(Cn3nc(-c4cccc(O)c4)c4c(N)ncnc43)n(-c3ccccc3OCCN3CCOCC3)c(=O)c12 | < 0.1 µM | < 0.1 µM | > 10 µM | > 10 µM | < 1 µM
Cc1cccc2cc(Cn3nc(-c4ccn[nH]4)c4c(N)ncnc43)n(-c3ccccc3F)c(=O)c12 | < 1 µM | – | > 10 µM | > 10 µM | < 10 µM
